Where a name gives a salt, the structure may show the parent alone.

Broadly, the melting point is the temperature, or range, at which the solid turns liquid. In the case of `CCCc1nc2c(N)nc(C)c(C)c2n1CCCCCS(=O)(=O)c1ccc(C(F)(F)F)cc1`, the melting point was 172 to 173.5 °C.
As to `CCCc1nc2c(N)nc(C)c(C)c2n1CCCCCS(=O)(=O)c1ccccc1`, the melting point lay in the range of 134 to 136 °C.
To `CCCc1nc2c(N)nc(C)c(C)c2n1CCCCCS(=O)(=O)c1ccc(OC)cc1` belongs 130.5 to 132 °C; to `CCCc1nc2c(N)nc(C)c(C)c2n1CCCS(=O)(=O)c1ccc(Cl)cc1`, 186.5 to 188 °C.
For `CCCc1nc2c(N)nc(C)c(C)c2n1CCCS(=O)(=O)c1ccc(C(=O)O)cc1` (as salt: hydrochloride) [Example 100, 4-[3-(4-Amino-6,7-dimethyl-2-propyl-1II-imidazo[4,5-c]pyridin-1-yl)propane-1-sulfonyl]benzoic acid hydrochloride] the value was above 250 °C; for `CCOCc1nc2c(N)nc(C)c(C)c2n1CCOCCCc1ccccc1` (as salt: hydrochloride) [Example 123, 2-Ethoxymethyl-6,7-dimethyl-1-[2-(3-phenylpropoxy)ethyl]-1H-imidazo[4,5-c]pyridin-4-amine hydrochloride], 128 to 130 °C; for `Cc1nc(N)c2nc(C)n(CCOCCN)c2c1C` (as salt: salt) [Example 14, 1-[2-(2-Aminoethoxy)ethyl]-2,6,7-trimethyl-1H-imidazo[4,5-c]pyridin-4-amine], 130 to 133 °C.
`Cc1nc(N)c2nc(C)n(CCOCCNC(=O)N3CCOCC3)c2c1C` (as salt: salt) [Example 15, N-{2-[2-(4-Amino-2,6,7-trimethyl-1H-imidazo[4,5-c]pyridin-1-yl)ethoxy]ethyl}morpholine-4-carboxamide]: the melting point lay in the range of 205 to 207 °C.
For `Cc1nc(N)c2nc(C)n(CCOCCNC(=O)C(C)C)c2c1C` (as salt: salt) [Example 16, N-{2-[2-(4-Amino-2,6,7-trimethyl-1H-imidazo[4,5-c]pyridin-1-yl)ethoxy]ethyl}-2-methylpropanamide] the value was 179.5 to 182 °C.
`Cc1nc(N)c2ncn(CCOc3ccccc3)c2c1C` [Example 1, 6,7-Dimethyl-1-(2-phenoxyethyl)-1H-imidazo[4,5-c]pyridin-4-amine] displayed a melting point of 197 to 199 °C.
To `Cc1nc(N)c2nc(C)n(CCOc3ccccc3)c2c1C` [Example 2, 2,6,7-Trimethyl-1-(2-phenoxyethyl)-1H-imidazo[4,5-c]pyridin-4-amine] belongs 176 to 177 °C; to `CCCCc1nc2c(N)nc(C)c(C)c2n1CCOc1ccccc1` [Example 3, 2-Butyl-6,7-dimethyl-1-(2-phenoxyethyl)-1H-imidazo[4,5-c]pyridin-4-amine], 130 to 132 °C; to `CCOCc1nc2c(N)nc(C)c(C)c2n1CCOCc1ccccc1` [Example 4, 1-[2-(Benzyloxy)ethyl]-2-(ethoxymethyl)-6,7-dimethyl-1H-imidazo[4,5-c]pyridin-4-amine], 107.3 to 108.2 °C.
To `Cc1nc(N)c2nc(C)n(CCOCc3ccccc3)c2c1C` [Example 5, 1-[2-(Benzyloxy)ethyl]-2,6,7-trimethyl-1H-imidazo[4,5-c]pyridin-4-amine] belongs 136.8 to 137.5 °C.
Compound `CCCc1nc2c(N)nc(C)c(C)c2n1CCOCc1ccccc1` [Example 6, 1-[2-(Benzyloxy)ethyl]-6,7-dimethyl-2-propyl-1H-imidazo[4,5-c]pyridin-4-amine] showed a melting point of 99.5 to 100 °C.
`Cc1nc(N)c2nc(C)n(CCOCC#Cc3ccccc3)c2c1C` [Example 7, 2,6,7-Trimethyl-1-{2-[(3-phenylprop-2-ynyl)oxy]ethyl}-1H-imidazo[4,5-c]pyridin-4-amine]: the melting point lay within 186.8 to 187.5 °C.
As for `Cc1nc(N)c2nc(C)n(CCOCCCc3ccccc3)c2c1C` [Example 8, 2,6,7-Trimethyl-1-[2-(3-phenylpropoxy)ethyl]-1H-imidazo[4,5-c]pyridin-4-amine], the melting point lay within 118.1 to 119 °C.
To `Cc1nc(N)c2nc(C)n(CCOC/C=C/c3ccccc3)c2c1C` [Example 9, 2,6,7-Trimethyl-1-(2-{[(2E)-3-phenylprop-2-enyl]oxy}ethyl)-1H-imidazo[4,5-c]pyridin-4-amine] belongs 143.7 to 144.8 °C; to `Cc1nc(N)c2nc(C)n(CCOCCCc3cccnc3)c2c1C` [Example 10, 2,6,7-Trimethyl-1-[2-(3-pyridin-3-ylpropoxy)ethyl]-1H-imidazo[4,5-c]pyridin-4-amine], 108.6 to 109.5 °C.
To `CCOCc1nc2c(N)nc(C)c(C)c2n1CCOCCCc1cccnc1` [Example 11, 2-(Ethoxymethyl)-6,7-dimethyl-1-[2-(3-pyridin-3-ylpropoxy)ethyl]-1H-imidazo[4,5-c]pyridin-4-amine] belongs 78 to 78.5 °C.
For `CSCCCCCn1c(C)nc2c(N)nc(C)c(C)c21` [Example 12, 2,6,7-Trimethyl-1-[5-(methylthio)pentyl]-1H-imidazo[4,5-c]pyridin-4-amine] the value was 121 to 122 °C.
Compound `Cc1nc(N)c2nc(C)n(CCCCCSc3ccccc3)c2c1C` [Example 13, 2,6,7-Trimethyl-1-[5-(phenylthio)pentyl]-1H-imidazo[4,5-c]pyridin-4-amine] returned a melting point of 181 to 183 °C.
To `Cc1nc(N)c2nc(C)n(CCCCCS(C)(=O)=O)c2c1C` [Example 78, 1-[5-(Methanesulfonyl)pentyl]-2,6,7-trimethyl-1H-imidazo[4,5-c]pyridin-4-amine] belongs 199 to 200 °C; to `CCOCc1nc2c(N)nc(C)cc2n1CCOCc1ccccc1` [Example 80, 1-[2-(Benzyloxy)ethyl]-2-(ethoxymethyl)-6-methyl-1H-imidazo[4,5-c]pyridin-4-amine], 127 to 128 °C.
To `CCOCc1nc2c(N)nc(C)c(C)c2n1CCOCCCc1nccs1` [Example 82, 2-(Ethoxymethyl)-6,7-dimethyl-1-{2-[3-(1,3-thiazol-2-yl)propoxy]ethyl}-1H-imidazo[4,5-c]pyridin-4-amine] belongs 91 to 92 °C.
In the case of `Cc1nc(N)c2ncn(CCOCc3ccncc3)c2c1C` [Example 84, 6,7-Dimethyl-1-[2-(pyridin-4-ylmethoxy)ethyl]-1H-imidazo[4,5-c]pyridin-4-amine], the melting point was in the range of 195 to 196 °C.
For `CCCc1nc2c(N)nc(C)c(C)c2n1CCCCCS(=O)(=O)c1ccc(Cl)cc1` [Example 85, 1-[5-(4-Chlorobenzenesulfonyl)pentyl]-6,7-dimethyl-2-propyl-1H-imidazo[4,5-c]pyridin-4-amine] the value was 147 to 149 °C.
To `CCCc1nc2c(N)nc(C)c(C)c2n1CCCCCS(=O)(=O)c1ccccn1` [Example 87, 6,7-Dimethyl-2-propyl-1-[5-(pyridine-2-sulfonyl)pentyl]-1H-imidazo[4,5-c]pyridin-4-amine] belongs 143 to 144.5 °C; to `CCCc1nc2c(N)nc(C)c(C)c2n1CCCCS(C)(=O)=O` [Example 89, 1-[4-(Methanesulfonyl)butyl]-6,7-dimethyl-2-propyl-1H-imidazo[4,5-c]pyridin-4-amine], 152 to 153 °C; to `CCCc1nc2c(N)nc(C)c(C)c2n1CCCS(C)(=O)=O` [Example 90, 1-[3-(Methanesulfonyl)propyl]-6,7-dimethyl-2-propyl-1H-imidazo[4,5-c]pyridin-4-amine], 153.5 to 155 °C.

Source of the values: patent publication US7220758B2, “Ether substituted imidazopyridines” (3M Innovative Properties Company, priority 2002, dated 2007).
